Experimental data taken from US7347997B1, “Method of using a feedstuff additive” (priority 1998, dated 2008).
Read-outs that look alike come from different tables or passages of the source.

Columns and labels:
weaned piglets = details: pig, in vivo

SMILES	concentration without any adverse effect on the cell activity (chicken lymphocytes; checking after 28 and after 44 hours)	concentration without apparent change of proliferation foci / no negative effects on the cell culture (chicken lymphocytes; checking after 20 hours, listed as DOM)	concentration without apparent change of proliferation foci / no negative effects on the cell culture (chicken lymphocytes; checking after 20 hours, listed as deepoxymetabolite)	FCR (weaned piglets)	Feedstuff intake/animal/day (weaned piglets)	Losses (total) (weaned piglets)	Weight increase/animal/day (weaned piglets)	action on the cell culture (chicken lymphocytes)	concentration from which a marked adverse effect on the cell activity is present (chicken lymphocytes; checking after 20 hours)
C=C1[C@@H]2O[C@@H]3C=C(C)C(=O)[C@@H](O)[C@]3(CO)[C@@]1(C)C[C@H]2O [DOM-1]	58 µg/mL	≤ 58 µg/mL	58 µg/mL	–	–	–	–	–	–
CC1=C[C@H]2O[C@@H]3[C@H](O)C[C@](C)([C@@]2(CO)[C@H](O)C1=O)[C@]31CO1 [DON, deoxynivalenol]	–	–	–	1.79	226.3	0	126.2 g	marked damage to the cells	≥ 0.625 µg/mL
